Where two headings read alike, the source gives them in different places.
Experiments:
AntR C103S = assay: Two-plasmid gfp biosensor with AntR C103S mutant in E. coli AW3110; assay type: cell-based, Comamonas testosterone JL40; settings: 0.2% arabinose, E. coli AW3110(DE3), Figure 3c
AntR C113S = assay: Two-plasmid gfp biosensor with AntR C113S mutant in E. coli AW3110; assay type: cell-based, Comamonas testosterone JL40; settings: 0.2% arabinose, E. coli AW3110(DE3), Figure 3d
AntR [1] = target: T1, AntR (Comamonas testosteroni, UniProt A0A096F4H2); assay type: cell-based, Comamonas testosterone JL40
T1 sequence (A0A096F4H2 1-124): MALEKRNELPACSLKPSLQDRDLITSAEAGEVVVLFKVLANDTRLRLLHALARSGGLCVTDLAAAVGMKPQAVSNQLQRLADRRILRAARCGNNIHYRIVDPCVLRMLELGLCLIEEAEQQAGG

AntR [2] = target: T1, AntR; assay type: binding, Comamonas testosterone JL40; settings: read-out: apparent Kd (ITC)
[3] = tested on: AntR binding to the ant operator/promoter DNA; assay type: biochemical, Comamonas testosterone JL40
AntR Y96W derivative = AntR Y96W derivative (Comamonas testosteroni, UniProt A0A096F4H2, Y97W); assay type: binding, Comamonas testosterone JL40; settings: read-out: apparent Kd (fluorescence quenching); pH 7.8
Chain of AntR Y96W derivative (A0A096F4H2 1-124 Y97W): as the sequence (A0A096F4H2 1-124) above, with Y97W counted along it

Compound	response of C103S mutant biosensor compared with the wild type (AntR C103S)	response of C113S mutant biosensor compared with the wild type (AntR C113S)	induction of gfp expression in biosensor (AntR [1])	response of AntR repressor to metalloid (introductory summary) (AntR [1])	Kd (AntR [2])	effect of metal(loid) on AntR mobility shift of ant promoter probe (EMSA) [3]	induction of gfp expression in biosensor (AntR [1]; 5 µM metalloid, 0.2% arabinose, E. coli AW3110Δars, wild-type AntR)	Kd (AntR Y96W derivative)
C[As](O)O [MAs(III), methylarsenite]	reduced responses	reduced responses	induced gfp expression	responds				
antimonite [Sb(III)]	reduced responses	reduced responses		responds	57 µM	mobility shift decreased	induced gfp expression	
O[As](O)O [As(III), arsenite]			little gfp expression	only weakly	440 µM			~160 µM

Reference: PMC8862607 (Molecular microbiology, 2021)
